# Literature values in US20120289492A1, “METHODS OF TREATING MITOCHONDRIAL DISORDERS USING METALLOPORPHYRINS” (priority 2009, published 2012).
# Legend:
# [1] = safety studies in mice, monkeys and rats; phase 1 in amyotrophic lateral sclerosis patients; cited from earlier work
# [2] = test system: CD-1 Sod2−/− mice; details: cited from earlier work
SMILES,serious adverse events [1],neurodegeneration [2],spongiform encephalopathy [2],cardiomyopathy [2]
CCN1C=CN(CC)C1=C1C2=NC(=C(c3n(CC)cc[n+]3CC)C3=NC(=C(c4n(CC)cc[n+]4CC)c4ccc([n-]4)C(c4n(CC)cc[n+]4CC)=C4C=CC1=N4)C=C3)C=C2.[Cl-].[Cl-].[Cl-].[Cl-].[Cl-].[Mn+3] [AEOL10150],No serious adverse events have been found,,,
[Cl-].[Mn+3].[O-]c1ccccc1C=NCCN=Cc1ccccc1[O-] [EUK8],,ameliorated,ameliorated,
COc1cccc(C=NCCN=Cc2cccc(OC)c2[O-])c1[O-].[Cl-].[Mn+3] [EUK134],,ameliorated,ameliorated,
"O=C(O)c1ccc(/C2=C3\C=CC(=N3)/C(c3ccc(C(=O)O)cc3)=c3/cc/c4[n]3[Mn]([Cl])[n]3c2ccc3/C(c2ccc(C(=O)O)cc2)=C2/C=CC(=N2)\C=4c2ccc(C(=O)O)cc2)cc1 [MnTBAP, manganese tetrakis 5, 10, 15, 20 . . . porphyrin]",,but not neurodegeneration,,ameliorated
